Data set [1] relates to intratumoral microvessels of SKOV-3m tumors. Description: Microvessel and lymphatic vessel measurements in tumors (CD34, LYVE-1 immunostaining). The format is in vivo, Balb/cA-nu female nude mice. The note with it: result in words. Here is the method: Photographs of histological sections were taken and processed using an Olympus AX70 microscope (Olympus Optical, Japan), and analySIS (Soft Imaging System, GmbH, Germany) and PhotoShop (Adobe) softwares. Microvessel density (MVD) and total microvascular area (%) of the tumors (TVA) were measured from CD34-immunostained sections using analySIS software at 100× magnification in a blinded manner (FIG. 3b). Six to ten different fields which represented maximum microvessel density areas were selected from each tumor. Necrotic areas were avoided. In addition, the total number of LYVE-1 positive lymphatic vessels per section was counted. Means±SEM of the measurements are reported.

Data set [2] in a line: Clinical chemistry: plasma ALT and creatinine. The conditions noted are these: mean ± SEM. An excerpt: Plasma samples were collected at 6, 13, 20 and 27 days after the gene transfer and when the mice were sacrificed. Alanine aminotransferase (ALT) and creatinine (Crea) were monitored using routine clinical chemistry assays at Kuopio University Hospital Central Laboratory. Enzyme-linked immunosorbent assays (Quantikine; R&D Systems, Minneapolis, Minn.) were used to detect the presence of human sVEGFRs in plasma samples.
Safety was judged by the assessment of the histological samples of liver, spleen, kidneys and lungs as well as by the analysis of plasma ALT and Crea levels.

We go through two compounds from patent publication US20140057851A1, “Anti-Angiogenic Gene Therapy With Soluble VEGF Receptors -1, -2 and -3 Together With Paclitaxel Prolongs Survival Of Mice With Human Ovarian Carcinoma” (WKD Holding Oy, priority 2012, published 2014).

Consider Bevacizumab, for which, in data set [1], the “effect on angiogenesis by microvessel measurements” value is recorded as “did not have any effect”. Moreover, the ALT was found to be 12.9 ± 3 U/l in data set [2] (Day 6 after treatment) and 56.3 ± 22 U/l in data set [2] (Day 13 after treatment). In addition, the values for the Crea in data set [2] (Day 6 after treatment) and in data set [2] (Day 13 after treatment) were 7.4 ± 1 um/l and 12.4 ± 4 um/l, respectively.

As for `N.N.O=C([O-])C1(C(=O)[O-])CCC1.[Pt+2]` [Carboplatin], in data set [2] (Day 6 after treatment), the ALT is 10.0 ± 1 U/l and the Crea was 14.4 ± 3 um/l. Moreover, in data set [2] (Day 13 after treatment), the ALT was 399 ± 209 U/l and the Crea worked out at 4.9 ± 2 um/l.
